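1) Cells in 96-well plates. 2) Compound, 48 h, 5 concentrations. 3) Linear interpolation between surrounding doses. 4) Unreached endpoint = highest concentration. GI50 = concentration required for 50% inhibition of growth.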 The source made the active and inactive calls. Cut-off read from the data, not from the text of the source: active = GI50 up to about 1.1 µM and inactive = higher.
What was measured:
Experiment in all cases: NCI anticancer screen, dose series, 48 h
NCI-H460 = tested on: NCI-H460
OVCAR-8 = tested on: OVCAR-8
K562 = tested on: K562
U-251 = tested on: U-251
SK-OV-3 = tested on: SK-OV-3
RXF 393 = tested on: RXF 393
CAKI-1 = tested on: CAKI-1
SK-MEL-2 = tested on: SK-MEL-2
CCRF-CEM = tested on: CCRF-CEM
SF-295 = tested on: SF-295
OVCAR-5 = tested on: OVCAR-5
MDA-MB-435 = tested on: MDA-MB-435
MOLT-4 = tested on: MOLT-4
SK-MEL-5 = tested on: SK-MEL-5
A498 = tested on: A498
SNB-75 = tested on: SNB-75
UO-31 = tested on: UO-31
IGROV-1 = tested on: IGROV-1
NCI/ADR-RES = tested on: NCI/ADR-RES
ACHN = tested on: ACHN

Measured: GI50

O=C1CC2(CCC(O)(c3cccs3)C(C(=O)c3cccs3)C2)C(=O)c2ccccc2N1 (stereo not given)
inactive: NCI-H460 16.5 µM | OVCAR-8 > 100 µM | K562 40.8 µM | U-251 90.4 µM | SK-OV-3 > 100 µM | RXF 393 > 100 µM | CAKI-1 > 100 µM | SK-MEL-2 > 100 µM | CCRF-CEM 22.5 µM | SF-295 > 100 µM | OVCAR-5 > 100 µM | MDA-MB-435 > 100 µM | MOLT-4 29 µM | SK-MEL-5 11.8 µM | A498 > 100 µM | SNB-75 37.7 µM | UO-31 > 100 µM | IGROV-1 > 100 µM | NCI/ADR-RES 67.1 µM

C/C(=N\Oc1cc(Cl)ncn1)c1ccccn1
inactive: NCI-H460 25.3 µM | OVCAR-8 > 100 µM | K562 56.5 µM | U-251 60.5 µM | SK-OV-3 92.5 µM | RXF 393 4 µM | CAKI-1 18.7 µM | SK-MEL-2 14.1 µM | CCRF-CEM 34.4 µM | SF-295 63 µM | OVCAR-5 37.8 µM | MDA-MB-435 47.4 µM | MOLT-4 39.2 µM | SK-MEL-5 28.1 µM | SNB-75 > 100 µM | UO-31 52 µM | IGROV-1 21.9 µM | ACHN 90.6 µM | NCI/ADR-RES > 100 µM

COc1ccc(-c2cc3[nH]nc(N)c3c(=O)o2)cc1
inactive: NCI-H460 > 100 µM | OVCAR-8 > 100 µM | K562 > 100 µM | U-251 89.9 µM | RXF 393 55.3 µM | CAKI-1 73.6 µM | SK-MEL-2 > 100 µM | CCRF-CEM > 100 µM | SF-295 > 100 µM | OVCAR-5 > 100 µM | MOLT-4 > 100 µM | SK-MEL-5 > 100 µM | A498 76.9 µM | SNB-75 97.3 µM | UO-31 > 100 µM | IGROV-1 > 100 µM | ACHN > 100 µM

COc1ccc2c(c1)C(=O)/C(=C/c1ccccc1)C2
inactive: NCI-H460 34 µM | OVCAR-8 > 100 µM | K562 29 µM | U-251 > 100 µM | SK-OV-3 > 100 µM | RXF 393 43.9 µM | CAKI-1 20.2 µM | SK-MEL-2 74.1 µM | CCRF-CEM 11.3 µM | SF-295 > 100 µM | OVCAR-5 52.5 µM | MDA-MB-435 63.2 µM | MOLT-4 16.3 µM | SK-MEL-5 29.4 µM | A498 44 µM | SNB-75 46.5 µM | UO-31 49.7 µM | IGROV-1 > 100 µM | NCI/ADR-RES 24.7 µM

C=C(C)C(=O)OC1CCC2(C)C(CCC3C2CCC2(C)C(c4ccc(=O)oc4)CC4OC432)C1 (stereo not given)
inactive: NCI-H460 1.25 µM | OVCAR-8 5.51 µM | K562 2.69 µM | U-251 6.73 µM | SK-OV-3 20.5 µM | RXF 393 2.78 µM | CAKI-1 4.07 µM | SK-MEL-2 4.28 µM | CCRF-CEM 3.26 µM | SF-295 5.07 µM | OVCAR-5 30.4 µM | MOLT-4 2.41 µM | SK-MEL-5 3.8 µM | A498 5.02 µM | SNB-75 7.38 µM | UO-31 4.75 µM | IGROV-1 6.75 µM | NCI/ADR-RES 6.46 µM

C=CCCCCCCCCC(=O)O [UNDECYLENIC ACID]
active: A498 0.798 µM
inactive: NCI-H460 94.2 µM | OVCAR-8 121 µM | K562 152 µM | U-251 112 µM | SK-OV-3 138 µM | RXF 393 93.1 µM | CAKI-1 106 µM | SK-MEL-2 85.3 µM | CCRF-CEM 128 µM | SF-295 109 µM | OVCAR-5 145 µM | MOLT-4 110 µM | SK-MEL-5 93.8 µM | SNB-75 168 µM | UO-31 80.7 µM | IGROV-1 113 µM | NCI/ADR-RES 172 µM

Source: ChEMBL document CHEMBL1201862, “PubChem BioAssay data set” (2004)
